Laboratory results from patent publication US8541464B2, “Treatment of atrial fibrillation” (HUYA Biosciences International LLC, priority 2009, dated 2013).
Several values for one entry are separate records, joined by “and”; a condition that tells them apart may be missing. Equal values may be shown once.

Legend:
[1] = Plasma concentration in dog cardiovascular safety study; assay type: in vivo
Method: (§1) Dogs were administered morphine (2 mg/kg subcutaneously) approximately 10-19 minutes prior to administration of anesthesia. Dogs were anesthetized with 1% α-chloralose (100 mg/kg intravenous), followed by a constant infusion of α-chloralose (35-75 mg/kg/hr, IV). Two healthy female dogs were administered escalating doses of sulcardine sulfate intravenously over 15 minutes in an acetate buffer system at dose levels of 10, 30 and 90-mg/kg with dose administrations separated by 60 minutes. Following drug administration, dogs were evaluated for ventricular, pulmonary and peripheral hemodynamic changes using Swanz Ganz and femoral catheters as well as by monitoring of blood oxygen saturation, test article blood level, body temperature, blood biochemistries, hematologies, ECG, and histamine.
The mean peak sulcardine sulfate concentrations which peaked generally at the […] of each 15 minute infusion of sulcardine sulfate at 10, 30 and 90 mg/kg were 1.8, 11.2 and 100.1 μg/mL respectively which translated into approximately 4, 24.6 and 218 μM.

[2] = test system: minipigs; test: Cardiovascular safety in anesthetized minipigs, escalating 15-minute IV infusions; assay type: in vivo, minipig
Method: Animals were administered morphine (2 mg/kg subcutaneously) prior to induction of anesthesia. […] Animals were placed on a heating pad set to maintain the animal's body temperature at approximately 37° C. Body temperature was monitored throughout the experiment via a rectal thermometer or via the Swan Ganz (thermodilution catheter) once implanted. Animals were intubated and placed on a ventilator supplemented with oxygen to maintain oxygenation within the normal physiological range. The animals were mechanically ventilated at a rate of 11-13 breaths/minute and a peak inspiratory pressure of 18 cm H2O. The following parameters were regularly monitored in order to ensure proper ventilation of the animals but are not reported: SpO2, inspiratory and expiratory CO2, inspiratory O2 and respiratory rate.
(§2) A Swan Ganz (thermodilution catheter) was inserted into the right femoral vein via phlebotomy and advanced into the pulmonary artery for cardiac output measurements. A catheter was inserted in the left femoral artery via an arteriotomy for blood gas determination. Another catheter was inserted in the left femoral vein for blood collection for toxicokinetic evaluation. Finally, an incision was also performed on the left side of the neck to expose the left carotid artery and an electronic dual pressure sensor catheter (Millar) was placed via arteriotomy and advanced into the left ventricle. The catheter was positioned to simultaneously collect left ventricle blood pressure measurements as well as aortic pressure. In addition, a temporary catheter was placed in any of the cephalic veins for administration of Lactated Ringers at 10 mL/kg/hr throughout the course of the experiment.
Following surgical preparation, hemodynamic and electrocardiographic parameters were allowed to stabilize for at least 15 minutes. The vehicle control and test article were then administered, and hemodynamic, electrocardiographic, histamine and PK parameters were monitored.

[3] = test system: Cynomolgus monkeys; test: Cardiovascular safety in anesthetized Cynomolgus monkeys, escalating 15-minute IV infusions; assay type: in vivo, Cynomolgus monkey
Method: Female Cynomolgus monkeys were administered morphine (2 mg/kg subcutaneously) prior to induction of anesthesia. Monkeys were anesthetized with 1% α-chloralose (100 mg/kg intravenous), followed by a constant infusion of α-chloralose 40 mg/kg/hr, IV which was reduced to 30 mg/kg/hr approximately 92 to 98 min pre treatment due to low blood pressure. Monkeys were placed on a heating pad set to maintain the animal's body temperature at approximately 37° C. Body temperature was monitored throughout the experiment via a rectal thermometer or via the Swan Ganz (thermodilution catheter) once implanted. Monkeys were intubated and placed on a ventilator supplemented with oxygen to maintain oxygenation within the normal physiological range. The animals were mechanically ventilated at a rate of 12 breaths/minute and a pressure of 17-18 cm H2O. The following parameters were regularly monitored in order to ensure proper ventilation of the animals but are not reported: SpO2, inspiratory and expiratory CO2, inspiratory O2 and respiratory rate.
as §2
Following surgical preparation, hemodynamic and electrocardiographic parameters were allowed to stabilize for at least 15 minutes. The vehicle control and test article were then administered, and hemodynamic, electrocardiographic parameters were monitored. Histamine and plasma PK data was obtained.

[4] = test system: anesthetized dogs; test: Cardiovascular safety in anesthetized dogs with diphenhydramine pretreatment; assay type: in vivo, dog; settings: diphenhydramine pre-treated animals
Method: as §1, with “90 mg/kg” for “90-mg/kg”, “minutes. Another set of two dogs received test article after pre-treatment with diphenhydramine (1 mg/kg administered 30 minutes prior to start of test article infusion).” for “minutes.”, “biochemistry, hematology,” for “biochemistries, hematologies,”, “histamine levels.” for “histamine.”
Group 2 Animals: Sulcardine sulfate at 10, 30 and 90 mg/kg with diphenhydramine (1 mg/kg) administered approximately 30 minutes before treatment with 10 mg/kg sulcardine sulfate. Animals pre-treated with diphenhydramine (H1 antagonist) and dosed with sulcardine sulfate at 10 mg/kg, presented hemodynamic changes which are mediated by H2 receptors. The changes resembled those noted in Group 1 animals, but were of a reduced magnitude. […]

[5] = test system: dogs; test: Heart rate and blood pressure during slow (45 min) infusion in dogs; assay type: in vivo, dog; settings: for Heart rate / Mean blood pressure: 14 mg/kg i.v. over 45 minutes
Method: Three additional animals received sulcardine sulfate (14 mg/kg, i.v.) infused over 45 minutes. The purpose of this study was to investigate whether or not a slow infusion (45 min) of sulcardine sulfate would affect heart rate and blood pressure. […] The change in blood pressure was modest, most likely due to a compensatory increase in the resting heart rate.

With sulcardine sulfate the “mean peak plasma concentration” value ([1]; 90 mg/kg, 15 minute infusion) was 100.1 μg/mL and ~218 μM, the Cmax ([1]; dogs, read-out: Cmax that led to observed side effects such as hypotension) was 25 µM and the QTcC prolongation ([2]; 10 mg/kg, Animal 1601C) was 15%. The PR interval increase ([2]; 10 mg/kg, per animal) was “+38% and +10%”, the mortality ([2]; 90 mg/kg, during or at completion of the 15-minute infusion) was “both animals succumbed” and the QTcC prolongation ([2]; 30 and 90 mg/kg, both animals) was “up to 30%”. For the same substance, the histamine levels ([2]; all doses) was “no appreciable increases”, the QRS durations ([2]; starting at 10 mg/kg, both animals) was “dose dependent pattern of increasing QRS durations” and the “heart rate (HR) change (relatively stable)” value ([3]; 10 mg/kg) was no more than 10%. For the same substance, the histamine levels ([3]; 10 mg/kg) was “no appreciable increases”, the PR interval increase ([3]; 10 mg/kg, per animal) was “+18% and +30%” and the “increase of QRS from baseline” value ([3]; 10 mg/kg, per animal) was 11% and 26%. For the same substance, the conduction abnormality ([3]; 30 mg/kg infusion, animal 1501A) was “right bundle branch block (RBBB)”, the “mean pulmonary arterial pressure increase” value ([3]; 30 mg/kg, at the completion of infusion) was “up to +245%” and the conduction abnormality ([3]; 90 mg/kg infusion / shortly before death, animal 1602B) was “sino-atrial block with a ventricular escape rhythm and RBBB”. For the same substance, the mortality ([3]; 90 mg/kg, before completion of the 15-minute infusion) was “death in both animals”, the “QRS interval increase from baseline” value ([3]; 90 mg/kg, per animal) was 88% and 133% and the “QTcB increase from baseline” value ([3]; 90 mg/kg, per animal) was 78 ms and 112 ms. For the same substance, the PR interval increase ([3]; 30 and 90 mg/kg) was “Further increases were noted”, the histamine levels ([3]; Animal No. 1501A, after 10 minutes of the 30 mg/kg infusion) was “transient increases” and the histamine levels ([3]; Animal No. 1602B, any dose levels) was “No appreciable increases”. The mortality ([4]; 90 mg/kg, final 15-minute infusion) was “all animals succumbed”, the severity of tachycardia ([4]; after completion of dosing at 30 mg/kg) was “above 200 % of baseline” and the Heart rate ([5]; time 10 minutes) was 95.0 ± 7.6 bpm. It also gave a Mean blood pressure ([5]; time 10 minutes) of 165.3 ± 0.3 mmHg, a Heart rate ([5]; time 25 minutes) of 115.0 ± 5.8 bpm and a Mean blood pressure ([5]; time 25 minutes) of 167.7 ± 9.8 mmHg. It also gave a Heart rate ([5]; time 40 minutes) of 115.0 ± 5.0 bpm, a Mean blood pressure ([5]; time 40 minutes) of 162.7 ± 11.3 mmHg and a Heart rate ([5]; time 55 minutes) of 103.3 ± 6.0 bpm. The Mean blood pressure ([5]; time 55 minutes) was 152.0 ± 16.2 mmHg and the “effect of slow intravenous administration on resting blood pressure and/or heart rate” value ([5]; total intravenous dose of 14 mg/kg over 45 min) was “did not result in a marked change in resting blood pressure and/or heart rate”.
